Source: patent US5827849A, “Cyclic dericatives, pharmaceutical compositions containing these compounds and processes for preparing them” (Karl Thomae GmbH, priority 1993, dated 1998)
Structures can show the parent of a compound that is named as a salt. Where two headings read alike, the source gives them in different places.

Key:
[1] = system: Human thrombocytes; assay: Inhibition of the binding of 3H-BIBU 52 to human thrombocytes (platelets); conditions: 20 minutes
Method: 1. Inhibition of the binding of ^3 H-BIBU 52 to Human thrombocytes […] Case 5/1093-FL) and various concentrations of the test substance. The free and bound ligand are separated by centrifuging and quantitatively measured by scintillation counting. From the measurements obtained the inhibition of ^3 H-BIBU 52 binding caused by the test substance is determined. In order to do this, donor blood is taken from an anticubital vein and anti-coagulated with trisodium citrate (final concentration 13 mM). The blood is centrifuged for 10 minutes at 170×g and the supernatant platelet-rich plasma (PRP) is removed. The remaining blood is centrifuged vigorously once more in order to recover plasma. The PRP is diluted with autologous plasma 1:10. 750 μl are incubated for 20 minutes at ambient temperature with 50 μl of physiological saline solution, 100 μl of test substance solution, 50 μl of ^14 C-sucrose (3700 Bq) and 50 μl of ^3 H-BIBU 52 (final concentration: 5 nM). In order to measure the non specific binding, 5 μl of BIBU 52 (final concentration 30 μM) are used instead of the test substance. […] The pellet is dissolved in 500 μl of 0.2N NaOH, 450 μl are mixed with 2 ml of scintallator and 25 μl of 5N HCl, and measured. The residual plasma remaining in the pellet is determined from the ^14 C-content, and the bound ligand is determined from the ^3 H-measurement. After substracting the non specific binding, the pellet activity is plotted against the concentration of the test substance and the concentration for 50% inhibition of binding is determined. A. Inhibition of the binding of ^3 H-BIBU 52 to human platelets […] The free and bound ligand is separated by centrifugation and determined quantitatively by scintillation counting. The inhibition of ^3 H-BIBU 52 binding by the test substance is determined from the measurements. For this purpose, donor blood is taken from an antecubital vein and anticoagulated with trisodium citrate (final concentration 13 mM). The blood is centrifuged at 170×g for 10 minutes, and the supernatant platelet-rich plasma (PRP) is removed. The remaining blood is thoroughly centrifuged once again to obtain plasma. The PRP is diluted 1:10 with autologous plasma. […] are incubated with […] of physiological saline, […] of test substance solution, […] of ^14 C-sucrose (3700 Bq) and 50 ml of ^3 H-BIBU 52 (final concentration: 5 nM) at room temperature for 20 minutes. To measure the nonspecific binding, 5 ml of BIBU 52 (final concentration: […]) are used in place of the test substance. […] The pellet is dissolved in 500 ml of 0.2N NaOH, and 450 ml are mixed with 2 ml of scintillator and 25 ml of 5N HCl and measured. The remaining plasma still present in the pellet is determined from the ^14 C content, and the bound ligand is determined from the ^3 H measurement. After subtraction of the nonspecific binding, the activity in the pellet is plotted against the concentration of test substance, and the concentration for 50% inhibition of binding is found.

[2] = system: Thrombocyte aggregation (collagen-induced); assay: Collagen-induced platelet aggregation in platelet-rich plasma (Born and Cross method); format: cell-based; conditions: Homo sapiens, 10 min, 10 minutes incubation at 37° C., read-out: Inhibition of platelet aggregation EC50
Method: 2. Antithrombotic activity Thrombocyte aggregation is measured using the Born and Cross method (J. Physiol. 170: 397 (1964)) in platelet-rich plasma taken from healthy volunteers. To inhibit coagulation the blood is mixed with 3.14% sodium citrate in a ratio by volume of 1:10. Collagen-induced aggregation The pattern of the decrease in optical density of the platelet suspension is photometrically measured and recorded after the addition of the aggregation-triggering substance. The rate of aggregation is determined from the angle of inclination of the density curve. The point on the curve where there is maximum light transmittance is used to calculate the optical density. The amount of collagen used is as small as possible but sufficient to produce an irreversible reaction curve. Standard commercial collagen produced by Hormonchemie of Munich is used. Before the addition of the collagen the plasma is incubated for 10 minutes with the test substance at 37° C. From the measurements obtained, an EC50 is determined graphically, indicating a 50% change in the optical density in terms of the inhibition of aggregation. B. Antithrombotic effect Platelet aggregation is measured by the method of Born and Cross (J. Physiol. 170, 397 (1964)) in platelet-rich plasma from healthy test subjects. For anticoagulation, sodium citrate 3.14% is added to the blood in the ratio 1:10 by volume. Collagen-induced aggregation The course of the decrease in optical density of the platelet suspension is measured and recorded photometrically after addition of the aggregation-inducing substance. The rate of aggregation is established from the angle of inclination of the density plot. The point on the plot at which the transmission of light is a maximum is used to calculate the optical density. The amount of collagen is chosen to be as small as possible but sufficient for the reaction plot to have an irreversible course. The collagen commercially obtainable from Hormonchemie, Munich, is used. Before the addition of collagen the plasma is in each case incubated with the substance at 37° C. for 10 minutes. An EC50 which relates to a 50% change in the optical density in the sense of inhibition of aggregation is determined graphically from the measured results.

[3] = system: collagen-induced thrombocyte aggregation; assay: Inhibition of collagen-induced thrombocyte aggregation ex vivo after oral administration; format: in vivo; conditions: Rhesus monkeys; oral administration of 1 mg/kg
[4] = human thrombocytes in plasma, 3H-BIBU 52 5 nM, ambient temperature, read-out: 3H-BIBU 52-binding test IC50
[5] = platelet-rich plasma of healthy volunteers, compounds of general formula I
[6] = human platelets in plasma, 3H-BIBU 52 5 nM replaces 125I-fibrinogen, room temperature, read-out: Fibrinogen binding assay IC50
[7] = platelet-rich plasma from healthy test subjects, compounds of general formula XXI

Row | IC50 [1, 4] [nM] | IC50 [1, 6] [nM] | SMILES | EC50 [2, 5] [nM] | EC50 [2, 7] [nM] | duration of inhibition of collagen-induced thrombocyte aggregation ex vivo [3]
1 | 760 | – | O=C(O)CCc1ccc(N2CCN([C@@H]3CC[C@H]4CNCC[C@@H]4C3)C2=O)cc1 (relative stereo) [9(1)] | 990 | – | –
2 | 5400 | – | O=C(O)CCc1ccc(-n2ccn(-c3ccc4cnccc4c3)c2=O)cc1 [2(1), 1-[4-(2-carboxyethyl)phenyl]-3-(isoquinolin-6-yl)-3H-imidazol-2-one] | > 10000 | – | –
3 | 24 | – | O=C(O)CCc1ccc(N2CCN(c3ccc4c(c3)CCNC4)C2=O)cc1 [2(2), 1-[4-(2-carboxyethyl)phenyl]-3-(1,2,3,4-tetrahydroisoquinolin-6-yl)-imidazolidin-2-one] | 40 | – | –
4 | 120 | – | CN1CCc2ccc(N3CCN([C@H]4CC[C@H](OCC(=O)O)CC4)C3=O)cc2CC1 [19(1), 1-[trans-4-[(carboxymethyl)oxy]cyclohexyl]-3-(3-methyl-2,3,4,5-tetrahydro-1H-3-benzazepin-7-yl)-imidazolidin-2-one-hydrochloride×NaCl×0.5H2 O] | 350 | – | –
5 | 81 | – | CN1CCc2ccc(N3CC(=O)N([C@H]4CC[C@H](CCC(=O)O)CC4)C3=O)cc2CC1 [19(3), 3-[trans-4-(2-carboxyethyl)cyclohexyl]-1-(3-methyl-2,3,4,5-tetrahydro-1H-3-benzazepin-7-yl)-hydantoin-hydrochloride] | 430 | – | –
6 | – | 250 | CCN1CCc2cc(N3CCN([C@H]4CC[C@H](CCC(=O)O)CC4)C3=O)cnc2CC1 [32 (1), 1-[trans-4-(2-Carboxyethyl)cyclohexyl]-3-(7-ethyl-6,7,8,9-tetrahydro-5H-pyrido[2,3-d]azepin-3-yl)imidazolidin-2-one×1 H2 O] | – | 310 | –
7 | – | 1000 | CCN1CCc2cnc(N3CCN(C4CCC(CCC(=O)O)CC4)C3=O)cc2CC1 (stereo not drawn) [32 (2), 1-[trans-4-(2-carboxyethyl)cyclohexyl]-3-(7-ethyl-6,7,8,9-tetrahydro-5H-pyrido[3,4-d]imidazolidin-2one] | – | 2300 | –
8 | – | 15 | O=C(O)CC[C@H]1CC[C@H](N2CCN(c3ccc4c(n3)CCNCC4)C2=O)CC1 [32 (3), 1-[trans-4-(2-Carboxyethyl)cyclohexyl]-3-(6,7,8,9-tetrahydro-5H-pyrido[2,3-d]azepin-2-yl)imidazolidin-2-one] | – | 81 | –
9 | – | 31 | O=C(O)CC[C@H]1CC[C@H](n2ccn(-c3cnc4c(n3)CCNCC4)c2=O)CC1 [32 (6), 1-[trans-4-(2-Carboxyethyl)cyclohexyl]-3-(6,7,8,9-tetrahydro-5H-pyrazino[2,3-d]azepin-2-yl)-3H-imidazol-2-one] | – | 230 | –
10 | – | 17 | CN1CCc2ccc(N3CCN([C@H]4CC[C@H](CCC(=O)O)CC4)C3=O)nc2CC1 [35 (1), 1-[trans-4-(2-Carboxyethyl)cyclohexyl]-3-(7-methyl-6,7,8,9-tetrahydro-5H-pyrido[2,3-d]azepin-2-yl)imidazolidin-2-one dihydrochloride×2H2 O] | – | 110 | –
11 | – | 77 | CCN1CCc2ncc(N3CCN(c4ccc(OCC(=O)O)cc4)C3=O)nc2CC1 [36 (1), 1-[4-[(Carboxymethyl)oxy]phenyl]-3-(7-ethyl-6,7,8,9-tetrahydro-5H-pyrazino[2,3-d]azepin-2-yl)imidazolidin-2-one×1.75 HCl×H2 O] | – | 290 | –
12 | – | 19 | CN1CCc2ncc(N3CCN([C@H]4CC[C@H](OCC(=O)O)CC4)C3=O)nc2CC1 [36 (2), 1-[trans-4-[(Carboxymethyl)oxy]cyclohexyl]-3-(7-methyl-6,7,8,9-tetrahydro-5H-pyrazino[2,3-d]azepin-2-yl)imidazolidin-2-one dihydrochloride] | – | 210 | –
13 | – | 18 | CN1CCc2ncc(N3CCN(C4CCN(CCC(=O)O)CC4)C3=O)nc2CC1 [36 (3), 1-[1-(2-Carboxyethyl)piperidin-4-yl]-3-(7-methyl-6,7,8,9-tetrahydro-5H-pyrazino[2,3-d]azepin-2-yl)imidazolidin-2-one trihydrochloride] | – | 71 | –
14 | – | 32 | CCN1CCc2ncc(N3CCN(c4ccc(CCC(=O)O)cc4)C3=O)nc2CC1 [36 (10), 1-[4-(2-Carboxyethyl)phenyl]-3-(7-ethyl-6,7,8,9-tetrahydro-5-pyrazino[2,3-d]azepin-2-yl)imidazolidin-2-one×1,4 HCl×2 H2 O] | – | 130 | –
15 | – | 13 | CN1CCc2ncc(N3CC(=O)N([C@H]4CC[C@H](CCC(=O)O)CC4)C3=O)nc2CC1 [36 (12), 3-[trans-4-(2-Carboxyethyl)cyclohexyl]-1-(7-methyl-6,7,8,9-tetrahydro-5H-pyrazino[2,3-d]azepin-2-yl)-imidazolidine-2,4-dione hydrochloride] | – | 450 | –
16 | 190 | – | Nc1nccc2cc(N3CCN(c4ccc(CCC(=O)O)cc4)C3=O)ccc12 [Example 1, 1-(1-Aminoisoquinolin-6-yl)-3-[4-(2-carboxyethyl)phenyl]-imidazolidin-2-one×1 water×1.2 acetic acid] | > 10000 | – | –
17 | 110 | – | COC(=O)CCc1ccc(N2CCN(c3ccc4c(c3)CCNC4)C2=O)cc1 [Example 6, 1-[4-[2-(Methoxycarbonyl)ethyl]phenyl]-3-(1,2,3,4-tetrahydro-isoquinolin-6-yl)-imidazolidin-2-one-acetate] | 40 | – | –
18 | – | – | CC(C)COC(=O)CCc1ccc(N2CCN(c3ccc4c(c3)CCNC4)C2=O)cc1 [Example 7, 1-[4-[2-(Isobutyloxycarbonyl)ethyl]phenyl]-3-(1,2,3,4-tetrahydroisoquinolin-6-yl)-imidazolidin-2-one-hydrochloride×1 water] | – | – | more than 5 hours
19 | 85 | – | O=C(O)CCc1ccc(N2CCN(c3ccc4c(c3)CCNCC4)C2=O)cc1 [Example 9, 1-[4-(2-Carboxyethyl)phenyl]-3-(2,3,4,5-tetrahydro-1H-3-benzazepin-7-yl)-imidazolidin-2-one] | 190 | – | –
20 | – | 11 | CN1CCc2ncc(N3CCN([C@H]4CC[C@H](CCC(=O)O)CC4)C3=O)nc2CC1 [Example 32, 1-[trans-4-(2-Carboxyethyl)cyclohexyl]-3-(7-methyl-6,7,8,9-tetrahydro-5H-pyrazino[2,3-d]azepin-2-yl)imidazolidin-2-one×1 H2 O] | – | 100 | –
